In ChEMBL document CHEMBL3885861, “Open TG-GATES”:

Species: Rattus norvegicus
Experiment: Open TG-GATES - Regimen: Single
Assay type: toxicity, organism-based, Sprague-Dawley
Set-up: regimen Single, gender Male, age 6 weeks
Conditions: in vivo, po, 10 mg/kg, route gavage, dose level Low; for APTT / Bas / Eos / Fbg / Hb / Ht / Lym / MCH / MCHC / MCV / Mono / Neu / PT / Plat / RBC / Ret / WBC: tissue Blood; for KIDNEY_L / KIDNEY_R / KIDNEY_TOTAL: tissue Kidney; for LIVER: tissue Liver; for A/G / ALP / ALT / AST / BUN / CRE / Ca / Cl / DBIL / GLC / IP / K / LDH / Na / PL / RALB / TBIL / TC / TG / TP / gamma-GTP: tissue Plasma

Structure (SMILES): CCCc1cc(=O)[nH]c(=S)[nH]1 [PROPYLTHIOURACIL]
- TERMINAL_BW (3 h): 181.7 g
- APTT (3 h): 15.5 s
- Bas (3 h): 0%
- Eos (3 h): 0.6%
- Fbg (3 h): 202.8 mg/dL
- Hb (3 h): 13.1 g/dL
- Ht (3 h): 39.5%
- Lym (3 h): 78.6%
- MCH (3 h): 22.3 pg
- MCHC (3 h): 33.3%
- MCV (3 h): 66.9 fL
- Mono (3 h): 8.6%
- Neu (3 h): 12.4%
- PT (3 h): 12.9 s
- Plat (3 h): 102.8 x10_4/uL
- RBC (3 h): 590.2 x10_4/ul
- Ret (3 h): 10.1%
- WBC (3 h): 92.2 x10_2/uL
- KIDNEY_L (3 h): 0.9 g
- KIDNEY_R (3 h): 0.9 g
- KIDNEY_TOTAL (3 h): 1.7 g
- LIVER (3 h): 8.4 g
- A/G (3 h): 2
- ALP (3 h): 982.6 IU/L
- ALT (3 h): 41.6 IU/L
- AST (3 h): 72.2 IU/L
- BUN (3 h): 12 mg/dL
- CRE (3 h): 0.4 mg/dL
- Ca (3 h): 11.1 mg/dL
- Cl (3 h): 105 meq/L
- DBIL (3 h): 0.042 mg/dL
- GLC (3 h): 191.4 mg/dL
- IP (3 h): 10.3 mg/dL
- K (3 h): 4.8 meq/L
- LDH (3 h): 92 IU/L
- Na (3 h): 138.6 meq/L
- PL (3 h): 122.2 mg/dL
- RALB (3 h): 3.6 g/dL
- TBIL (3 h): 0.3 mg/dL
- TC (3 h): 69.2 mg/dL
- TG (3 h): 26.6 mg/dL
- TP (3 h): 5.5 g/dL
- gamma-GTP (3 h): 1.4 IU/L
- TERMINAL_BW (6 h): 174.6 g
- APTT (6 h): 15.6 s
- Bas (6 h): 0%
- Eos (6 h): 0.8%
- Fbg (6 h): 208.2 mg/dL
- Hb (6 h): 13.7 g/dL
- Ht (6 h): 41.1%
- Lym (6 h): 78.4%
- MCH (6 h): 22 pg
- MCHC (6 h): 33.3%
- MCV (6 h): 66 fL
- Mono (6 h): 7.4%
- Neu (6 h): 13.4%
- PT (6 h): 12.8 s
- Plat (6 h): 100.8 x10_4/uL
- RBC (6 h): 622.8 x10_4/ul
- Ret (6 h): 8.9%
- WBC (6 h): 89.5 x10_2/uL
- KIDNEY_L (6 h): 0.8 g
- KIDNEY_R (6 h): 0.8 g
- KIDNEY_TOTAL (6 h): 1.7 g
- LIVER (6 h): 7.7 g
- A/G (6 h): 2
- ALP (6 h): 969.6 IU/L
- ALT (6 h): 33 IU/L
- AST (6 h): 64.6 IU/L
- BUN (6 h): 12.4 mg/dL
- CRE (6 h): 0.5 mg/dL
- Ca (6 h): 10.8 mg/dL
- Cl (6 h): 105.4 meq/L
- DBIL (6 h): 0.05 mg/dL
- GLC (6 h): 181.8 mg/dL
- IP (6 h): 10.6 mg/dL
- K (6 h): 5.2 meq/L
- LDH (6 h): 68 IU/L
- Na (6 h): 138.4 meq/L
- PL (6 h): 125.8 mg/dL
- RALB (6 h): 3.6 g/dL
- TBIL (6 h): 0.4 mg/dL
- TC (6 h): 68.4 mg/dL
- TG (6 h): 34.6 mg/dL
- TP (6 h): 5.4 g/dL
- gamma-GTP (6 h): 1.4 IU/L
- TERMINAL_BW (9 h): 177.5 g
- APTT (9 h): 16 s
- Bas (9 h): 0%
- Eos (9 h): 1.4%
- Fbg (9 h): 214.2 mg/dL
- Hb (9 h): 13.1 g/dL
- Ht (9 h): 39.3%
- Lym (9 h): 67%
- MCH (9 h): 22 pg
- MCHC (9 h): 33.3%
- MCV (9 h): 66 fL
- Mono (9 h): 11.8%
- Neu (9 h): 19.6%
- PT (9 h): 12.9 s
- Plat (9 h): 109.3 x10_4/uL
- RBC (9 h): 596 x10_4/ul
- Ret (9 h): 10.2%
- WBC (9 h): 70.1 x10_2/uL
- KIDNEY_L (9 h): 0.8 g
- KIDNEY_R (9 h): 0.9 g
- KIDNEY_TOTAL (9 h): 1.7 g
- LIVER (9 h): 7.7 g
- A/G (9 h): 2.1
- ALP (9 h): 791.6 IU/L
- ALT (9 h): 32 IU/L
- AST (9 h): 59.2 IU/L
- BUN (9 h): 12.8 mg/dL
- CRE (9 h): 0.4 mg/dL
- Ca (9 h): 10.7 mg/dL
- Cl (9 h): 106.4 meq/L
- DBIL (9 h): 0.01 mg/dL
- GLC (9 h): 192.6 mg/dL
- IP (9 h): 10.7 mg/dL
- K (9 h): 5.3 meq/L
- LDH (9 h): 84.2 IU/L
- Na (9 h): 138.2 meq/L
- PL (9 h): 135 mg/dL
- RALB (9 h): 3.6 g/dL
- TBIL (9 h): 0.4 mg/dL
- TC (9 h): 73.4 mg/dL
- TG (9 h): 38.8 mg/dL
- TP (9 h): 5.4 g/dL
- gamma-GTP (9 h): 1.4 IU/L
- TERMINAL_BW (24 h): 193.7 g
- APTT (24 h): 16.3 s
- Bas (24 h): 0%
- Eos (24 h): 1%
- Fbg (24 h): 209.4 mg/dL
- Hb (24 h): 13 g/dL
- Ht (24 h): 39.1%
- Lym (24 h): 77.2%
- MCH (24 h): 21.7 pg
- MCHC (24 h): 33.1%
- MCV (24 h): 65.4 fL
- Mono (24 h): 7.2%
- Neu (24 h): 14.8%
- PT (24 h): 12.3 s
- Plat (24 h): 102.3 x10_4/uL
- RBC (24 h): 598.4 x10_4/ul
- Ret (24 h): 9.7%
- WBC (24 h): 90 x10_2/uL
- KIDNEY_L (24 h): 0.9 g
- KIDNEY_R (24 h): 0.9 g
- KIDNEY_TOTAL (24 h): 1.8 g
- LIVER (24 h): 9.5 g
- A/G (24 h): 2.1
- ALP (24 h): 908.8 IU/L
- ALT (24 h): 39.8 IU/L
- AST (24 h): 65.6 IU/L
- BUN (24 h): 18.8 mg/dL
- CRE (24 h): 0.5 mg/dL
- Ca (24 h): 11 mg/dL
- Cl (24 h): 106.6 meq/L
- DBIL (24 h): 0.008 mg/dL
- GLC (24 h): 182.6 mg/dL
- IP (24 h): 7.3 mg/dL
- K (24 h): 5.2 meq/L
- LDH (24 h): 85.8 IU/L
- Na (24 h): 139.4 meq/L
- PL (24 h): 166.4 mg/dL
- RALB (24 h): 3.8 g/dL
- TBIL (24 h): 0.3 mg/dL
- TC (24 h): 94.8 mg/dL
- TG (24 h): 97.6 mg/dL
- TP (24 h): 5.6 g/dL
- gamma-GTP (24 h): 2.8 IU/L
